Data reported in PubChem BioAssay AID1259411 (Chemical Carcinogenesis Research Information System (CCRIS), 2018).
Activity calls are given as the source filed them. The rule behind the calls is not given here.

Tested on: rodent carcinogenicity bioassays, tumor incidence
Assay: CCRIS carcinogenicity studies
Excerpt: The CCRIS database contains chemical records with carcinogenicity, mutagenicity, tumor promotion, and tumor inhibition test results. It was developed by the National Cancer Institute (NCI). Data are derived from studies cited in primary journals, current awareness tools, NCI reports, and other sources. Test results have been reviewed by experts in carcinogenesis and mutagenesis.
CCRIS provides historical information from the years 1985 - 2011. It is no longer updated.
This is an archive assay for CCRIS carcinogenicity studies.

CN(C)C=O
carcinogen call (Species: MOUSE, Strain/Sex: CRL:CD-1(ICR)BR/FEMALE, Route: INHALATION, Dose: 0, 25, 100, 400 PPM 6 HR/D 5 D/WK FOR 18 MO (STUDY DURATION: 18 MO), Dose: 0, 25, 100, 400 PPM 6 HR/D 5 D/WK FOR 18 MO (STUDY DURATION: 18 MO)): inactive; negative
carcinogen call (Species: MOUSE, Strain/Sex: CRL:CD-1(ICR)BR/MALE, Route: INHALATION, Dose: 0, 25, 100, 400 PPM 6 HR/D 5 D/WK FOR 18 MO (STUDY DURATION: 18 MO), Dose: 0, 25, 100, 400 PPM 6 HR/D 5 D/WK FOR 18 MO (STUDY DURATION: 18 MO)): inactive; negative
carcinogen call (Species: RAT, Strain/Sex: CRL:CD BR/FEMALE, Route: INHALATION, Dose: 0, 25, 100, 400 PPM 6 HR/D 5 D/WK FOR 24 MO (STUDY DURATION: 24 MO), Dose: 0, 25, 100, 400 PPM 6 HR/D 5 D/WK FOR 24 MO (STUDY DURATION: 24 MO)): inactive; negative
carcinogen call (Species: RAT, Strain/Sex: CRL:CD BR/MALE, Route: INHALATION, Dose: 0, 25, 100, 400 PPM 6 HR/D 5 D/WK FOR 24 MO (STUDY DURATION: 24 MO), Dose: 0, 25, 100, 400 PPM 6 HR/D 5 D/WK FOR 24 MO (STUDY DURATION: 24 MO)): inactive; negative

CC(=O)OC[C@H]1O[C@H](O[C@]2(COC(C)=O)O[C@H](COC(=O)C(C)C)[C@@H](OC(=O)C(C)C)[C@@H]2OC(=O)C(C)C)[C@H](OC(=O)C(C)C)[C@@H](OC(=O)C(C)C)[C@@H]1OC(=O)C(C)C
carcinogen call (Species: MONKEY, Strain/Sex: CYNOMOLGUS/FEMALE, Route: GAVAGE, Dose: 0, 500, 1450, 2400 MG/KG BW 1X/D FOR 52 WK (STUDY DURATION: 52 WK), Dose: 0, 500, 1450, 2400 MG/KG BW 1X/D FOR 52 WK (STUDY DURATION: 52 WK)): inactive; negative
carcinogen call (Species: MONKEY, Strain/Sex: CYNOMOLGUS/MALE, Route: GAVAGE, Dose: 0, 500, 1450, 2400 MG/KG BW 1X/D FOR 52 WK (STUDY DURATION: 52 WK), Dose: 0, 500, 1450, 2400 MG/KG BW 1X/D FOR 52 WK (STUDY DURATION: 52 WK)): inactive; negative
carcinogen call (Species: MOUSE, Strain/Sex: B6C3F1/FEMALE, Route: ORAL, Dose: 0, 1.25, 2.5, 5 G/KG BW IN DIET FOR 2 YR (STUDY DURATION: 2 YR), Dose: 0, 1.25, 2.5, 5 G/KG BW IN DIET FOR 2 YR (STUDY DURATION: 2 YR)): inactive; negative
carcinogen call (Species: MOUSE, Strain/Sex: B6C3F1/MALE, Route: ORAL, Dose: 0, 1.25, 2.5, 5 G/KG BW IN DIET FOR 2 YR (STUDY DURATION: 2 YR), Dose: 0, 1.25, 2.5, 5 G/KG BW IN DIET FOR 2 YR (STUDY DURATION: 2 YR)): inactive; negative
carcinogen call (Species: RAT, Strain/Sex: F344/FEMALE, Route: ORAL, Dose: 0 0.5, 1, 2 G/KG BE IN DIET FOR 2 YR (STUDY DURATION: 2 YR), Dose: 0 0.5, 1, 2 G/KG BE IN DIET FOR 2 YR (STUDY DURATION: 2 YR)): inactive; negative
carcinogen call (Species: RAT, Strain/Sex: F344/MALE, Route: ORAL, Dose: 0, 0.5, 1, 2 G/KG BW IN DIET FOR 2 YR (STUDY DURATION: 2 YR), Dose: 0, 0.5, 1, 2 G/KG BW IN DIET FOR 2 YR (STUDY DURATION: 2 YR)): inactive; negative

Clc1ccccc1
carcinogen call (Species: MOUSE, Strain/Sex: B6C3F1/FEMALE, Route: GAVAGE, Dose: 0, 60, 120 MG/KG IN CORN OIL 5 D/WK FOR 103 WK (STUDY DURATION: 105 WK), Dose: 0, 60, 120 MG/KG IN CORN OIL 5 D/WK FOR 103 WK (STUDY DURATION: 105 WK)): inactive; negative
carcinogen call (Species: MOUSE, Strain/Sex: B6C3F1/MALE, Route: GAVAGE, Dose: 0, 30, 60 MG/KG IN CORN OIL 5 D/WK FOR 103 WK (STUDY DURATION: 105 WK), Dose: 0, 30, 60 MG/KG IN CORN OIL 5 D/WK FOR 103 WK (STUDY DURATION: 105 WK)): inactive; negative
carcinogen call (Species: RAT, Strain/Sex: F344/FEMALE, Route: GAVAGE, Dose: 0, 60, 120 MG/KG IN CORN OIL 5 D/WK FOR 103 WK (STUDY DURATION: 105 WK), Dose: 0, 60, 120 MG/KG IN CORN OIL 5 D/WK FOR 103 WK (STUDY DURATION: 105 WK)): inactive; negative
carcinogen call (Species: RAT, Strain/Sex: F344/MALE, Route: GAVAGE, Dose: 0, 60, 120 MG/KG IN CORN OIL 5 D/WK FOR 103 WK (STUDY DURATION: 105 WK), Dose: 0, 60, 120 MG/KG IN CORN OIL 5 D/WK FOR 103 WK (STUDY DURATION: 105 WK), Tumor Site: Type of Lesion: LIVER: NEOPLASTIC NODULE, NEOPLASTIC NODULE OR CARCINOMA): equivocal

C=Cc1ccncc1
carcinogen call (Species: MOUSE, Strain/Sex: STRAIN-A/FEMALE, Route: INTRAPERITONEAL, Dose: 0, 10 UMOL IN 0.1 ML OLIVE OIL 3/WK FOR 20 DOSES (TOTAL DOSE: 200 UMOL) (STUDY DURATION: 27 WK)): inactive; negative

COC(=O)c1ccc(C)cc1C1=NC(C)(C(C)C)C(=O)N1 (centres undefined) (tested in a mixture with another compound)
carcinogen call (Species: Mouse, Strain/Sex: CD-1/Female (65/Group), Route: Oral, Dose: 0, 130, 525, 2100 ppm 94.2% imazamethabenz-methyl in diet for 18 mo, study duration 18 mo, Dose: 0, 130, 525, 2100 ppm 94.2% imazamethabenz-methyl in diet for 18 mo, study duration 18 mo): inactive; negative
carcinogen call (Species: Mouse, Strain/Sex: CD-1/Male (65/Group), Route: Oral, Dose: 0, 130, 525, 2100 ppm 94.2% imazamethabenz-methyl in diet for 18 mo, study duration 18 mo, Dose: 0, 130, 525, 2100 ppm 94.2% imazamethabenz-methyl in diet for 18 mo, study duration 18 mo): inactive; negative
carcinogen call (Species: Rat, Strain/Sex: Crl:CD(SD)BR/Female (65/Group), Route: Oral, Dose: 0, 240, 1000, 4000 ppm 94.2% imazamethabenz-methyl in diet for 24 mo, study duration 24 mo, Dose: 0, 240, 1000, 4000 ppm 94.2% imazamethabenz-methyl in diet for 24 mo, study duration 24 mo): inactive; negative
carcinogen call (Species: Rat, Strain/Sex: Crl:CD(SD)BR/Male (65/Group), Route: Oral, Dose: 0, 240, 1000, 4000 ppm 94.2% imazamethabenz-methyl in diet for 24 mo, study duration 24 mo, Dose: 0, 240, 1000, 4000 ppm 94.2% imazamethabenz-methyl in diet for 24 mo, study duration 24 mo): inactive; negative
